Experimental findings from patent US5593991A, “Imidazole compounds, use and process of making” (priority 1995, dated 1997) are described below.

This assay deals with human PGHS-2 protein expression. The experiment in a line: Prostoglandin endoperoxide synthase-2 (PGHS-2) protein expression in LPS stimulated human monocytes. The format is cell-based. To be noted: for inhibition of LPS induced PGHS-2 protein expression (inactive): up to 10 uM; for inhibited LPS induced PGHS-2 protein expression (active): rank order potency similar to that for inhibiting cytokine production. The method, then: The following assay describes a method for determining the inhibitory effects of compounds of Formula (I) on human PGHS-2 protein expression in LPS stimulated human monocytes
Human peripheral blood monocytes were isolated from buffy coats by centrifugation through Ficoll and Percoll gradients. Cells were seeded at 2×10^6 /well in 24 well plates and allowed to adhere for 1 hour in RPMI supplemented with 1% human AB serum, 20 mM L-glutamine, Penicillin-Streptomycin and 10 mM HEPES. Compounds were added at various concentrations and incubated at 37° C. for 10 minutes. LPS was added at 50 ng/well (to induce enzyme expression) and incubated overnight at 37° C. The supernatant was removed and cells washed once in cold PBS. The cells were lysed in 100 μl of cold lysis buffer(50 mM Tris/HCl pH 7.5, 150 mM NaCl, 1% NP40, 0.5% sodium deoxycholate, 0.1% SDS, […] DNAse, 0.1% TRITON X-100, 1 mM PMSF, 1 mM leupeptin, 1 mM pepstatin). The lysate was centrifuged (10,000×g for 10 min. at 4° C.) to remove debris and the soluble fraction was subjected to SDS PAGE. analysis (12% gel). Protein separated on the gel were transferred onto nitrocellulose membrane by electrophoretic means for 2 hours at 60 volts. The membrane was pretreated for one hour in PBS/0.1% Tween 20 with 5% non-fat dry milk. After washing 3 times in PBS/Tween buffer, the membrane was incubated with a 1:2000 dilution of a monospecific antiserum to PGHS-2 or a 1:1000 dilution of an antiserum to PGHs-1 in PBS/Tween with 1% BSA for one hour with continuous shaking. The membrane was washed 3X in PBS/Tween and then incubated with a 1:3000 dilution of horseradish peroxidase conjugated donkey antiserum to rabbit Ig (Amersham) in PBS/Tween with 1% BSA for one hour with continuous shaking. The membrane was then washed 3X in PBS/Tween and the ECL immunodetection system (Amersham) was used to detect the level of expression of prostaglandin endoperoxide synthases-2.

The structures appear in SMILES notation.

Regarding `C[S+]([O-])c1ccc(-c2nc3n(c2-c2ccncc2)CCC3)cc1` (stereo not shown) [2-(4-Methylsulfinylphenyl)-3-(4-pyridyl)-6,7-dihydro-(5H)-pyrrolo[1,2-a]imidazole], the “inhibition of LPS induced PGHS-2 protein expression (inactive)” value (“inhibition” for short) is “inactive”. For `Fc1ccc(-c2nc3n(c2-c2ccncc2)CCS3)cc1` [6-(4-Fluorophenyl)-2,3-dihydro-5-(4-pyridinyl)imidazo[2,1-b]thiazole], the “inhibited LPS induced PGHS-2 protein expression (active)” value was “active”. On to `C[C@@H]1C[C@H]2[C@@H]3CCC4=CC(=O)C=C[C@]4(C)[C@@]3(F)[C@@H](O)C[C@]2(C)[C@@]1(O)C(=O)CO` [Dexamethasone], for which the “inhibited LPS induced PGHS-2 protein expression (active)” value was “active”.

For `Fc1ccc(-c2ncn(CCCN3CCOCC3)c2-c2ccncc2)cc1` [Example 1, 1-[3-(4-Morpholinyl)propyl]-4-(4-fluorophenyl)-5-(4-pyridyl)imidazole], the “inhibited LPS induced PGHS-2 protein expression (active)” value is “active”.

`CC(Cc1ccc(O)c(O)c1)C(C)Cc1ccc(O)c(O)c1` (stereo not shown) [NDGA]: the “inhibition” value was “inactive”.

For the compound `O=C1CCN(c2ccccc2)N1` [phenidone], the “inhibition” value was “inactive”. Same read-out and setting: in the case of `COc1ccc(C2CNC(=O)C2)cc1OC1CCCC1` (stereo not shown) [rolipram] it was “inactive”.
